Source: patent US9265189B2, “Method for reducing damage by harmful organisms in corn cultivation” (SUMITOMO CHEMICAL COMPANY, LIMITED, priority 2012, dated 2016)

Key:
Type in all cases: in vivo
[1] = tested on: Agriotes spp.; test: Field test, corn plants damaged by Agriotes spp. after in-furrow spray (Example 2); conditions: Example section 2: clothianidin 50 g/ha, in-furrow spray of Dantop 50WG aqueous suspension 100 L/ha, corn DK 440, 34 days after application; non-treatment section 73.3
Experimental: Using a pneumatic seeder (disk furrow opener, manufactured by Gaspardo) equipped with a power sprayer (trade name: WJR 2525, manufactured by HONDA), a cultivated land was ditched at intervals of 75 cm to a depth of 3 cm from the soil surface, and the furrow was seeded with corn (Zea Mays, trade name: DK 440; hybrid variety, manufactured by Monsanto) at intervals of […]. A seeding density of corn was 100000 seeds/ha. Then, the furrow was spray-treated with an aqueous suspension of a clothianidin water dispersible granule (using a 50% dispersible granule, trade name: Dantop 50WG, manufactured by Philagro) at 100 L/ha so that the application amount of clothianidin was 50 g/ha, and then a soil on the side of the furrow was gathered together to close the furrow. This was defined as an example section 2. For comparison, a non-treatment section, which was seeded with corn without application of a clothianidin water dispersible granule, was provided. […] 34 days after application of the clothianidin water dispersible granule, the number of plants of corn damaged by Agriotes spp. in each of the example section 2 and the non-treatment section was investigated, a damage plant rate was calculated in accordance with the following equation, and then an average damage plants rate of the four investigation sections was determined. […]

[2] = tested on: Diabrotica virgifera virgifera and Agriotes lineatus; test: Field test, corn lodged due to damage by Diabrotica virgifera virgifera and Agriotes lineatus (Example 4); conditions: Example section 4: clothianidin 80 g/ha, in-furrow spray of Dantop 50WG 125 L/ha, corn DKC 5143 seed treated with Maxim XL, 165 days after application; non-treatment section 23
Experimental: Ammonium phosphate (N:P:K=12:52:0) and urea (N:P:K=46:0:0), each of which being a fertilizer, were applied to the soil surface of a cultivated land at 100 kg/ha and 260 kg/ha, respectively, and the cultivated land was plowed. 24 days after fertilization, using a pneumatic seeder (disk furrow opener) equipped with a power sprayer, a cultivated land was ditched at intervals of 75 cm to a depth of 5 cm from the soil surface, and the furrow was seeded with corn (Zea Mays, variety name: DKC 5143; hybrid variety, manufactured by Monsanto). The cultivated land was seeded at intervals of 20 cm using, as a corn seed, one treated with a mixed agent of metalaxyl-M and fludioxonil (trade name: Maxim XL, manufactured by Syngenta). A seeding density of corn was 66667 seeds/ha. […] 165 days after application of the clothianidin water dispersible granule, the number of plants of corn lodged due to damage by Diabrotica virgifera virgifera and Agriotes lineatus in the furrows of the example section 4 and the non-treatment section, for which the number of plants of corn germinated was investigated, was investigated, a lodge rate was calculated in accordance with the following equation, and then an average lodge rate for the four investigation sections was determined. […]

[3] = tested on: Diabrotica virgifera virgifera and Agriotes lineatus; test: Field test, lodge rate, clothianidin in-furrow, herbicides plus cyprosulfamide on soil (Example 7); conditions: clothianidin 50 g/ha in-furrow spray 125 L/ha, thiuram-treated seed, 165 days after application; example in present tense
From the text: A chemical fertilizer (N:P:K=15:15:15) is applied to the soil surface of a cultivated land at 300 kg/ha, and the cultivated land is then plowed. 7 days after fertilization, for suppressing generation of weeds, the soil surface of the whole cultivated land is spray-treated with a mixed liquid containing thiencarbazone-methyl and isoxaflutole, each of which being a herbicide, and cyprosulfamide which is a safener at 150 L/ha so that the application amounts of thiencarbazone-methyl, isoxaflutole and cyprosulfamide are 9.2 g/ha, 23 g/ha and 15 g/ha, respectively. 21 days after fertilization, using a pneumatic seeder (disk furrow opener) equipped with a power sprayer, a cultivated land is ditched at intervals of 75 cm to a depth of 5 cm from the soil surface, and the furrow is seeded with corn (Zea Mays; hybrid variety). […] 165 days after application of the aqueous suspension of clothianidin, the number of plants of corn lodged due to damage by Diabrotica virgifera virgifera and Agriotes lineatus in the furrows of the treatment section and the non-treatment section, for which the number of plants of corn germinated is investigated, is investigated, a lodge rate is calculated in accordance with the following equation, and then an average lodge rate for the four investigation sections is determined.

How did the “Damage plant rate (%)” value [1] turn out when `CN/C(=N\[N+](=O)[O-])NCc1cnc(Cl)s1` [clothianidin] was run?
Its value is 7.7%.

And the “Lodge rate (%)” value [2]?
The value was 4%.

What about the “Lodge rate compared to non-treatment section” value [3] of the same compound?
The value was “low lodge rate as compared to the non-treatment section”.
